Assay results published in the NIST ThermoML archive (doi:10.1016/j.jct.2006.10.008).
Numbers after ± are expanded uncertainties.

Tests used:
[1] = xn = mol fraction of the nth substance listed; details: 298.15 K, 101 kPa, Liquid
[2] = excess molar enthalpy (molar enthalpy of mixing); xn = mol fraction of the nth substance listed; details: 298.15 K, 101 kPa, Liquid, Calvet calorimetry

ClCCCCCCl [1,5-dichloropentane] + CCOC=O
Details | excess molar enthalpy [kJ/mol] | mass density [kg/m3]
[1], x2 = 0.0955 | – | 1084.27 ± 0.49
[1], x2 = 0.1752 | – | 1074.48 ± 0.47
[1], x2 = 0.2534 | – | 1064.51 ± 0.45
[1], x2 = 0.3284 | – | 1054.28 ± 0.43
[1], x2 = 0.3985 | – | 1044.1 ± 0.41
[1], x2 = 0.4628 | – | 1034.31 ± 0.39
[1], x2 = 0.5327 | – | 1023.03 ± 0.37
[1], x2 = 0.5897 | – | 1013.34 ± 0.35
[1], x2 = 0.6456 | – | 1003.36 ± 0.33
[1], x2 = 0.698 | – | 993.61 ± 0.33
[1], x2 = 0.7473 | – | 983.9 ± 0.34
[1], x2 = 0.7941 | – | 974.37 ± 0.35
[1], x2 = 0.8401 | – | 964.52 ± 0.36
[1], x2 = 0.8829 | – | 954.89 ± 0.38
[1], x2 = 0.9235 | – | 945.49 ± 0.39
[1], x2 = 0.9625 | – | 936.01 ± 0.4
[2], x2 = 0.1024 | 0.141 ± 0.0019 | –
[2], x2 = 0.2043 | 0.224 ± 0.0025 | –
[2], x2 = 0.2974 | 0.295 ± 0.0031 | –
[2], x2 = 0.3848 | 0.335 ± 0.0034 | –
[2], x2 = 0.4598 | 0.345 ± 0.0035 | –
[2], x2 = 0.5273 | 0.339 ± 0.0034 | –
[2], x2 = 0.5845 | 0.321 ± 0.0033 | –
[2], x2 = 0.6305 | 0.297 ± 0.0031 | –
[2], x2 = 0.6809 | 0.26 ± 0.0028 | –
[2], x2 = 0.7286 | 0.231 ± 0.0026 | –
[2], x2 = 0.7798 | 0.19 ± 0.0023 | –
[2], x2 = 0.8289 | 0.149 ± 0.002 | –
[2], x2 = 0.8791 | 0.109 ± 0.0017 | –
[2], x2 = 0.9215 | 0.0696 ± 0.0014 | –
[2], x2 = 0.9634 | 0.0314 ± 0.0011 | –

CCCOC=O [propyl methanoate] + ClCCCCCl
Details | excess molar enthalpy [kJ/mol] | mass density [kg/m3]
[1], x1 = 0.0695 | – | 1119.11 ± 0.56
[1], x1 = 0.1347 | – | 1106.03 ± 0.53
[1], x1 = 0.1987 | – | 1092.92 ± 0.51
[1], x1 = 0.2624 | – | 1079.78 ± 0.48
[1], x1 = 0.3279 | – | 1066.03 ± 0.45
[1], x1 = 0.3884 | – | 1053.07 ± 0.43
[1], x1 = 0.4509 | – | 1039.59 ± 0.4
[1], x1 = 0.5061 | – | 1027.51 ± 0.38
[1], x1 = 0.5671 | – | 1013.93 ± 0.35
[1], x1 = 0.6204 | – | 1001.93 ± 0.33
[1], x1 = 0.6808 | – | 988.13 ± 0.34
[1], x1 = 0.7363 | – | 975.18 ± 0.35
[1], x1 = 0.7901 | – | 962.5 ± 0.37
[1], x1 = 0.8426 | – | 950.01 ± 0.38
[1], x1 = 0.8965 | – | 936.97 ± 0.4
[1], x1 = 0.9466 | – | 924.57 ± 0.41
[2], x1 = 0.0711 | 0.0285 ± 0.001 | –
[2], x1 = 0.1446 | 0.0411 ± 0.0011 | –
[2], x1 = 0.2182 | 0.0439 ± 0.0011 | –
[2], x1 = 0.2908 | 0.0273 ± 0.001 | –
[2], x1 = 0.3554 | 0.0089 ± 0.0009 | –
[2], x1 = 0.4191 | -0.0128 ± 0.0009 | –
[2], x1 = 0.4755 | -0.0293 ± 0.001 | –
[2], x1 = 0.5267 | -0.0443 ± 0.0011 | –
[2], x1 = 0.5668 | -0.0557 ± 0.0012 | –
[2], x1 = 0.6196 | -0.0705 ± 0.0013 | –
[2], x1 = 0.681 | -0.0777 ± 0.0014 | –
[2], x1 = 0.7427 | -0.0719 ± 0.0013 | –
[2], x1 = 0.8085 | -0.0598 ± 0.0012 | –
[2], x1 = 0.875 | -0.0393 ± 0.0011 | –
[2], x1 = 0.939 | -0.0223 ± 0.001 | –

CCCOC=O [propyl methanoate] + ClCCCl
Details | excess molar enthalpy [kJ/mol] | mass density [kg/m3]
[1], x1 = 0.0538 | – | 1223.09 ± 0.77
[1], x1 = 0.1017 | – | 1203.75 ± 0.73
[1], x1 = 0.1515 | – | 1184.04 ± 0.69
[1], x1 = 0.2043 | – | 1163.71 ± 0.65
[1], x1 = 0.2575 | – | 1143.76 ± 0.61
[1], x1 = 0.3685 | – | 1103.98 ± 0.53
[1], x1 = 0.4248 | – | 1084.54 ± 0.49
[1], x1 = 0.4826 | – | 1065.09 ± 0.45
[1], x1 = 0.5426 | – | 1045.46 ± 0.41
[1], x1 = 0.6034 | – | 1026.11 ± 0.38
[1], x1 = 0.6652 | – | 1006.9 ± 0.34
[1], x1 = 0.7294 | – | 987.38 ± 0.34
[1], x1 = 0.794 | – | 968.29 ± 0.36
[1], x1 = 0.8599 | – | 949.22 ± 0.38
[1], x1 = 0.9286 | – | 929.85 ± 0.41
[2], x1 = 0.0489 | -0.0374 ± 0.0011 | –
[2], x1 = 0.1034 | -0.0843 ± 0.0015 | –
[2], x1 = 0.1594 | -0.141 ± 0.0019 | –
[2], x1 = 0.2211 | -0.198 ± 0.0023 | –
[2], x1 = 0.28 | -0.254 ± 0.0028 | –
[2], x1 = 0.3363 | -0.307 ± 0.0032 | –
[2], x1 = 0.3886 | -0.3527 ± 0.0035 | –
[2], x1 = 0.4382 | -0.3907 ± 0.0038 | –
[2], x1 = 0.483 | -0.4196 ± 0.004 | –
[2], x1 = 0.5155 | -0.4351 ± 0.0041 | –
[2], x1 = 0.5716 | -0.4376 ± 0.0042 | –
[2], x1 = 0.6361 | -0.4199 ± 0.004 | –
[2], x1 = 0.7083 | -0.3758 ± 0.0037 | –
[2], x1 = 0.7725 | -0.314 ± 0.0032 | –
[2], x1 = 0.8488 | -0.228 ± 0.0026 | –
[2], x1 = 0.9302 | -0.122 ± 0.0018 | –

ClCCCCCCCl [1,6-dichlorohexane] + CCOC=O
Details | excess molar enthalpy [kJ/mol] | mass density [kg/m3]
[1], x2 = 0.0997 | – | 1055.27 ± 0.43
[1], x2 = 0.196 | – | 1046.53 ± 0.41
[1], x2 = 0.28 | – | 1038.19 ± 0.4
[1], x2 = 0.3577 | – | 1029.9 ± 0.38
[1], x2 = 0.4304 | – | 1021.49 ± 0.36
[1], x2 = 0.4965 | – | 1013.36 ± 0.35
[1], x2 = 0.558 | – | 1005.21 ± 0.33
[1], x2 = 0.6159 | – | 997.06 ± 0.33
[1], x2 = 0.67 | – | 988.91 ± 0.34
[1], x2 = 0.7203 | – | 980.91 ± 0.35
[1], x2 = 0.7675 | – | 973 ± 0.35
[1], x2 = 0.8114 | – | 965.17 ± 0.36
[1], x2 = 0.8538 | – | 957.24 ± 0.37
[1], x2 = 0.893 | – | 949.58 ± 0.38
[1], x2 = 0.9301 | – | 941.93 ± 0.39
[1], x2 = 0.9649 | – | 934.51 ± 0.4
[2], x2 = 0.102 | 0.171 ± 0.0022 | –
[2], x2 = 0.205 | 0.298 ± 0.0031 | –
[2], x2 = 0.2968 | 0.3913 ± 0.0038 | –
[2], x2 = 0.3852 | 0.4411 ± 0.0042 | –
[2], x2 = 0.4641 | 0.4605 ± 0.0043 | –
[2], x2 = 0.5316 | 0.4655 ± 0.0044 | –
[2], x2 = 0.5845 | 0.4581 ± 0.0043 | –
[2], x2 = 0.6442 | 0.4361 ± 0.0042 | –
[2], x2 = 0.6907 | 0.406 ± 0.0039 | –
[2], x2 = 0.7399 | 0.3651 ± 0.0036 | –
[2], x2 = 0.7869 | 0.306 ± 0.0032 | –
[2], x2 = 0.8348 | 0.25 ± 0.0028 | –
[2], x2 = 0.8829 | 0.175 ± 0.0022 | –
[2], x2 = 0.9248 | 0.119 ± 0.0018 | –
[2], x2 = 0.9656 | 0.0618 ± 0.0014 | –
